According to ChEMBL document CHEMBL5344406, “1,2,3-Triazole-containing hybrids with potential antibacterial activity against ESKAPE pathogens” (2022):
Converted amounts (≈) assume the structure as drawn.

Legend:
Type in all cases: functional
[1] = test system: Escherichia coli; test: Antibacterial activity against Escherichia coli assessed as bacterial growth inhibition
[2] = test system: Pseudomonas aeruginosa; test: Antibacterial activity against Pseudomonas aeruginosa assessed as bacterial growth inhibition
[3] = test system: Staphylococcus aureus; test: Antibacterial activity against Staphylococcus aureus ATCC 25923 assessed as bacterial growth inhibition incubated for 18 to 20 hrs by broth microdilution method; details: time 18-20 hrs
[4] = test system: Escherichia coli; test: Antibacterial activity against Escherichia coli ATCC 25922 assessed as bacterial growth inhibition incubated for 18 to 20 hrs by broth microdilution method; details: time 18-20 hrs
[5] = test system: Klebsiella pneumoniae; test: Antibacterial activity against Klebsiella pneumoniae ATCC 29665 assessed as bacterial growth inhibition incubated for 18 to 20 hrs by broth microdilution method; details: time 18-20 hrs
[6] = test system: Acinetobacter baumannii; test: Antibacterial activity against Acinetobacter baumannii ATCC 19606 assessed as bacterial growth inhibition incubated for 18 to 20 hrs by broth microdilution method; details: time 18-20 hrs
[7] = test system: Pseudomonas aeruginosa; test: Antibacterial activity against Pseudomonas aeruginosa ATCC 27853 assessed as bacterial growth inhibition incubated for 18 to 20 hrs by broth microdilution method; details: time 18-20 hrs
[8] = test system: Staphylococcus aureus; test: Antibacterial activity against Staphylococcus aureus ATCC 43300 assessed as bacterial growth inhibition incubated for 24 hrs by broth microdilution method
[9] = test system: Staphylococcus aureus; test: Antibacterial activity against Staphylococcus aureus ATCC 29213 assessed as bacterial growth inhibition incubated for 24 hrs by broth microdilution method
[10] = test system: Staphylococcus aureus; test: Antibacterial activity against Staphylococcus aureus clinical isolate AD3 assessed as bacterial growth inhibition incubated for 24 hrs by broth microdilution method
[11] = test system: Staphylococcus aureus; test: Antibacterial activity against Staphylococcus aureus clinical isolate 144 assessed as bacterial growth inhibition incubated for 24 hrs by broth microdilution method
[12] = test system: Escherichia coli; test: Antibacterial activity against Escherichia coli assessed as bacterial growth inhibition by serial dilution method
[13] = test system: Pseudomonas aeruginosa; test: Antibacterial activity against Pseudomonas aeruginosa assessed as bacterial growth inhibition by serial dilution method
[14] = test system: Bacillus subtilis; test: Antibacterial activity against Bacillus subtilis assessed as bacterial growth inhibition by serial dilution method
[15] = test system: Staphylococcus epidermidis; test: Antibacterial activity against Staphylococcus epidermidis assessed as bacterial growth inhibition by serial dilution method
[16] = test system: Staphylococcus aureus; test: Antibacterial activity against Staphylococcus aureus assessed as bacterial growth inhibition by serial dilution method

MIC [3] [µg/mL] | MIC [4] [µg/mL] | MIC [5] [µg/mL] | MIC [6] [µg/mL] | MIC [7] [µg/mL] | MIC [12] [µg/mL] | MIC [13] [µg/mL] | MIC [14] [µg/mL] | MIC [15] [µg/mL] | MIC [16] [µg/mL] | Structure (SMILES) | further results
– | – | – | – | – | – | – | – | – | – | O=C(/C=C/c1ccc(OCc2cn(Cc3ccc(Br)cc3)nn2)cc1)c1ccc(Br)cc1 | MIC [1]: 6.25 µg/mL (≈ 11.3 µM); MIC [2]: 6.25 µg/mL (≈ 11.3 µM)
0.25 (≈ 0.369 µM) | 0.25 (≈ 0.369 µM) | 0.25 (≈ 0.369 µM) | 0.25 (≈ 0.369 µM) | 0.25 (≈ 0.369 µM) | – | – | – | – | – | COc1ccc(C[C@H](NC(=O)Cn2cc(CN3CCN(c4cc5c(cc4F)c(=O)c(C(=O)O)cn5C4CC4)CC3)nn2)C(=O)O)cc1OC | –
– | – | – | – | – | – | – | – | – | – | C=C[C@]1(C)C[C@@H](OC(=O)Cn2cc(CN3CCN(c4ccccc4[N+](=O)[O-])CC3)nn2)[C@@]2(C)[C@@H]3C(=O)CC[C@@]3(CC[C@@H]2C)[C@@H](C)[C@@H]1O | MIC [8]: 0.5 µg/mL (≈ 0.771 µM); MIC [9]: 0.5 µg/mL (≈ 0.771 µM); MIC [10]: 0.5 µg/mL (≈ 0.771 µM); MIC [11]: 0.5 µg/mL (≈ 0.771 µM)
– | – | – | – | – | 3.12 (≈ 7.7 µM) | 3.12 (≈ 7.7 µM) | 3.12 (≈ 7.7 µM) | 3.12 (≈ 7.7 µM) | – | O=C(Nc1ccc(F)cc1)OCc1cn(Cc2ccc(Br)cc2)nn1 | –
– | – | – | – | – | – | – | – | – | – | O=C(/C=C/c1ccc(OCc2cn(Cc3ccccc3Br)nn2)cc1)c1ccc(Br)cc1 | MIC [1]: 6.25 µg/mL (≈ 11.3 µM); MIC [2]: 6.25 µg/mL (≈ 11.3 µM)
– | – | – | – | – | 25 (≈ 68.2 µM) | 25 (≈ 68.2 µM) | 25 (≈ 68.2 µM) | 25 (≈ 68.2 µM) | 25 (≈ 68.2 µM) | COc1ccc(-n2cc(COc3ccccc3/C=N/NC(N)=O)nn2)cc1 | –
– | – | – | – | – | 25 (≈ 70.6 µM) | 25 (≈ 70.6 µM) | 25 (≈ 70.6 µM) | 25 (≈ 70.6 µM) | 25 (≈ 70.6 µM) | NC(=O)N/N=C/c1ccccc1OCc1cn(-c2ccc(F)cc2)nn1 | –
0.25 (≈ 0.365 µM) | 0.25 (≈ 0.365 µM) | 0.25 (≈ 0.365 µM) | 0.25 (≈ 0.365 µM) | 0.25 (≈ 0.365 µM) | – | – | – | – | – | O=C(Cn1cc(CN2CCN(c3cc4c(cc3F)c(=O)c(C(=O)O)cn4C3CC3)CC2)nn1)N[C@@H](Cc1cc(=O)[nH]c2ccccc12)C(=O)O | –
– | – | – | – | – | 6.25 (≈ 14 µM) | 6.25 (≈ 14 µM) | 6.25 (≈ 14 µM) | 6.25 (≈ 14 µM) | 6.25 (≈ 14 µM) | NC(=S)N/N=C/c1cccc(OCc2cn(Cc3ccc(Br)cc3)nn2)c1 | –
– | – | – | – | – | – | – | – | – | – | O=C(/C=C/c1ccc(OCc2cn(Cc3ccc(Br)cc3)nn2)cc1)c1ccc([N+](=O)[O-])cc1 | MIC [1]: 6.25 µg/mL (≈ 12 µM); MIC [2]: 6.25 µg/mL (≈ 12 µM)
0.25 (≈ 0.371 µM) | 0.25 (≈ 0.371 µM) | 0.25 (≈ 0.371 µM) | 0.25 (≈ 0.371 µM) | 0.25 (≈ 0.371 µM) | – | – | – | – | – | C=CCOc1ccc(C[C@H](NC(=O)Cn2cc(CN3CCN(c4cc5c(cc4F)c(=O)c(C(=O)O)cn5C4CC4)CC3)nn2)C(=O)O)cc1 | –
– | – | – | – | – | 25 (≈ 74.3 µM) | 25 (≈ 74.3 µM) | 25 (≈ 74.3 µM) | 25 (≈ 74.3 µM) | 25 (≈ 74.3 µM) | NC(=O)N/N=C/c1ccccc1OCc1cn(-c2ccccc2)nn1 | –
0.25 (≈ 0.405 µM) | 0.25 (≈ 0.405 µM) | 0.25 (≈ 0.405 µM) | 0.25 (≈ 0.405 µM) | 0.25 (≈ 0.405 µM) | – | – | – | – | – | O=C(Cn1cc(CN2CCN(c3cc4c(cc3F)c(=O)c(C(=O)O)cn4C3CC3)CC2)nn1)N[C@@H](Cc1ccccc1)C(=O)O | –
0.25 (≈ 0.385 µM) | 0.25 (≈ 0.385 µM) | 0.25 (≈ 0.385 µM) | 0.25 (≈ 0.385 µM) | 0.25 (≈ 0.385 µM) | – | – | – | – | – | O=C(Cn1cc(CN2CCN(c3cc4c(cc3F)c(=O)c(C(=O)O)cn4C3CC3)CC2)nn1)N[C@@H](CSc1ccccc1)C(=O)O | –
– | – | – | – | – | 6.25 (≈ 14 µM) | 6.25 (≈ 14 µM) | 6.25 (≈ 14 µM) | 6.25 (≈ 14 µM) | 6.25 (≈ 14 µM) | NC(=S)N/N=C/c1ccc(OCc2cn(Cc3ccc(Br)cc3)nn2)cc1 | –
